From the Deep4Chem optical property database

Test: solvent given as SMILES

In the case of `CC1=[N+]2C(=C(c3ccc(C(=O)c4ccccc4)cc3)c3ccc(C)n3[B-]2(F)F)C=C1c1cc2n(c1)[B-](F)(F)[N+]1=CC=CC1=C2c1c(C)cc(C)cc1C`, the absorption maximum (in C1CCCCC1) is reported as 599 nm and the absorption maximum (in CCOC(C)=O) is reported as 601.5 nm.
For `c1ccc2c(-c3cc(-c4nccs4)nc(-c4nccs4)c3)cccc2c1`, the absorption maximum (in CC#N) was 324 nm, the absorption maximum (in CCCCCC) was 325 nm and the absorption maximum (in CO) was 325 nm. For the same molecule, the absorption maximum (in ClC(Cl)Cl) was 330 nm.
`Cc1cc2ccccc2c2[nH]c3ccccc3c12` showed an absorption maximum (in ClCCl) of 300 nm.
For `CC1=CC(C)=[N+]2C1=Cc1c3ccccc3c(C#Cc3ccc(F)cc3)n1[B-]2(F)F`, the absorption maximum (in CCCCCC) was 609 nm, the absorption maximum (in CCCCCCCCO) was 613 nm and the absorption maximum (in CCOC(C)=O) was 607 nm. It also gave an absorption maximum (in CN(C)C=O) of 612 nm.
Work on `Cc1ccc(-n2c(-c3ccc(C(F)(F)F)cc3)nc(-c3ccccc3O)c2-c2ccccc2O)cc1` yielded an absorption maximum (in C1CCOC1) of 314 nm, an absorption maximum (in CC(C)O) of 309 nm and an absorption maximum (in CCCCCC) of 314 nm. For the same molecule, the absorption maximum (in CO) was 309 nm, the absorption maximum (in CS(C)=O) was 313 nm and the absorption maximum (in ClCCl) was 311 nm.
`C/C=C/c1cccc(OC)c1` gave an absorption maximum (in CCCCCC) of 293 nm.
Molecule `CCCCN1C(=O)C(=C/C=C/C=C/C=C2N(CCCC)c3ccccc3N2CCCC)C(=O)N(CCCC)C1=S` has an absorption maximum (in CC#N) of 540 nm, an absorption maximum (in CCCCCC) of 678 nm and an absorption maximum (in CCO) of 492 nm. It also gave an absorption maximum (in CN(C)C=O) of 549 nm, an absorption maximum (in CO) of 483 nm and an absorption maximum (in Cc1ccccc1) of 689 nm. For the same molecule, the absorption maximum (in ClC(Cl)Cl) was 658 nm, the absorption maximum (in ClCCl) was 642 nm and the absorption maximum (in OCC(F)(F)F) was 464 nm.
With `CCCCCCc1ccc(-n2c3[n+](c4c5ccccc5c5ccccc5c42)[B-](C)(C)c2cc(N(c4ccccc4)c4ccccc4)ccc2-3)cc1` the absorption maximum (in C1CCOC1) was 393 nm, the absorption maximum (in CC#N) was 390 nm and the absorption maximum (in Cc1ccccc1) was 397 nm. The absorption maximum (in ClCCl) was 392 nm.
For `CCN(CC)c1ccc2cc(-c3nc4c5cccc6ccc7cccc(c7c65)c4n3-c3ccc(C(C)(C)C)cc3)c(=O)oc2c1`, the absorption maximum (in ClCCl) was 410 nm.
`O=C(c1ccc(C(=C(c2ccc(C(=O)c3ccc(-n4c5ccccc5c5ccccc54)cc3)cc2)c2ccc(C(=O)c3ccc(-n4c5ccccc5c5ccccc54)cc3)cc2)c2ccccc2)cc1)c1ccc(-n2c3ccccc3c3ccccc32)cc1` showed an absorption maximum (in C1CCOC1) of 340 nm.
Molecule `C(=C(c1ccccc1)c1ccccc1)c1ccc(-c2cc(-c3ccc(C=C(c4ccccc4)c4ccccc4)cc3)c(-c3ccc(C=C(c4ccccc4)c4ccccc4)cc3)cc2-c2ccc(C=C(c3ccccc3)c3ccccc3)cc2)cc1` has an absorption maximum (in C1CCOC1) of 330 nm.
With `CC(=O)c1c(N[C@@H](Cc2ccccc2)C(=O)O)c2ccc(N(C)C)cc2oc1=O` the absorption maximum (in ClCCl) was 374 nm.
Molecule `c1cc2ccc1-c1ccc(cc1)-c1ccc([se]1)-c1ccc(cc1)-c1ccc(cc1)-c1ccc([se]1)-c1ccc(cc1)-c1ccc(cc1)-c1ccc-2[se]1` has an absorption maximum (in C1CCOC1) of 365 nm.
In the case of `Cn1ccc(-c2nc3ccccc3nc2/C=C/N2CCCC2)c1`, the absorption maximum (in CC#N) is reported as 445 nm.
For `O=C1c2cccc3cc4ccccc4c(c23)C(=O)N1Cc1ccccn1`, the absorption maximum (in C1CCOC1) was 432 nm, the absorption maximum (in CCCCCC) was 427 nm and the absorption maximum (in CCO) was 436 nm. The absorption maximum (in Cc1ccccc1) was 435 nm and the absorption maximum (in ClCCl) was 437 nm.
`COc1cc(OC)cc(C2=[O+][B-](F)(F)OC(c3ccc4cc(OC)ccc4c3)=C2)c1` showed an absorption maximum (in ClCCl) of 427 nm.
For `COC(=O)C(NC(=O)OC(C)(C)C)c1ccc2oc(-c3ccc(O)cc3O)nc2c1` (stereo unspecified), the absorption maximum (in CC1CCCCC1) was 336 nm, the absorption maximum (in CC#N) was 320 nm and the absorption maximum (in CO) was 321 nm.
`O=S1(=O)C(c2cccs2)=C(c2cccs2)c2ccccc21` gave an absorption maximum (in C1CCOC1) of 372 nm.
For `CCN(CC)c1ccc2c(c1)oc(=O)c1cnc3c(c(C)nn3-c3ccccc3)c12`, the absorption maximum (in ClCCl) was 404 nm.
`c1ccc(C[n+]2ccc(-c3cc[n+](Cc4ccccc4)cc3)cc2)cc1` gave an absorption maximum (in CC#N) of 260 nm.
`CC[N+]1(CC)CN2C(=N1)C(C(=O)O)=Cc1ccc(OC)cc12` showed an absorption maximum (in O) of 372 nm.
`CCN(CC)c1ccc2nc3c4ccccc4c(=O)cc-3oc2c1` showed an absorption maximum (in C1COCCO1) of 519 nm, an absorption maximum (in CC#N) of 535 nm and an absorption maximum (in CC(C)=O) of 533 nm. For the same molecule, the absorption maximum (in CCCCCC) was 508 nm, the absorption maximum (in CCO) was 549 nm and the absorption maximum (in CCOC(C)=O) was 524 nm. The absorption maximum (in CO) was 553 nm, the absorption maximum (in CS(C)=O) was 552 nm and the absorption maximum (in Cc1ccccc1) was 524 nm. The absorption maximum (in ClCCl) was 539 nm.
With `C[n+]1ccnc(/C=C/c2ccc(N(c3ccccc3)c3ccc(/C=C/c4c[n+](C)ccn4)cc3)cc2)c1` the absorption maximum (in CS(C)=O) was 440 nm, the absorption maximum (in O) was 485 nm and the absorption maximum (in OCC(O)CO) was 500 nm.
`CN1/C(=C/C2=C([O-])C(=O)C2=C2C(=O)NC(=O)NC2=O)C(C)(C)c2ccccc21` showed an absorption maximum (in CCO) of 457 nm.
`CCCCC(CC)Cn1c2cc(C#N)ccc2c2ccc(C#Cc3cc(C#Cc4ccc5c6ccc(C#N)cc6n(CC(CC)CCCC)c5c4)c4ccc5c(C#Cc6ccc7c8ccc(C#N)cc8n(CC(CC)CCCC)c7c6)cc(C#Cc6ccc7c8ccc(C#N)cc8n(CC(CC)CCCC)c7c6)c6ccc3c4c65)cc21` (stereo unspecified) showed an absorption maximum (in ClCCl) of 467 nm.
In the case of `F[B-]1(F)N(c2ccccc2)C=Cc2cccc[n+]21`, the absorption maximum (in C1CCCCC1) is reported as 442 nm, the absorption maximum (in C1CCOC1) is reported as 425 nm and the absorption maximum (in CC#N) is reported as 412 nm. It also gave an absorption maximum (in CC(C)=O) of 422 nm, an absorption maximum (in CCO) of 418 nm and an absorption maximum (in CCOC(C)=O) of 427 nm. It also gave an absorption maximum (in CO) of 417 nm and an absorption maximum (in O) of 396 nm.
`CNc1ccc2nc3cc(Cl)c(Cl)cc3nc2c1` showed an absorption maximum (in CCO) of 490 nm.
In the case of `CCC1=[N+]2c3c(c4ccc(Oc5c(C)cc(C)cc5C)c5cc6c(Oc7c(C)cc(C)cc7C)ccc7c8cc(CC)n(c8c3c(c54)c67)[B-]2(F)F)=C1`, the absorption maximum (in Cc1ccccc1) is reported as 867 nm.
In the case of `CCN(CC)c1ccc2c(c1)OC1=C(/C=C/C3=[N+](C)c4ccccc4C3(C)C)CCCC1=C2c1ccccc1C(=O)O`, the absorption maximum (in CC#N) is reported as 708 nm, the absorption maximum (in CCO) is reported as 700 nm and the absorption maximum (in CO) is reported as 700 nm. The absorption maximum (in ClC(Cl)Cl) was 716 nm.
`N#C/C(=C\c1ccc(C#N)cc1)c1nc(-c2ccc(Cl)cc2)c(-c2ccccc2)s1` showed an absorption maximum (in CC#N) of 377 nm.
`Cc1ccc(C(=O)NC(C)(C)C)c2c1ccc1c3ccccc3c3ccccc3c12` showed an absorption maximum (in ClCCl) of 335 nm.
Molecule `F[B-]1(F)Oc2c(-c3cccc4c3O[B-](F)(F)[n+]3c(-c5ccccc5)c(-c5ccccc5)n(-c5ccc(C(F)(F)F)cc5)c3-4)cccc2-c2n(-c3ccc(C(F)(F)F)cc3)c(-c3ccccc3)c(-c3ccccc3)[n+]21` has an absorption maximum (in C1CCOC1) of 342 nm.
With `C[Si]1(C)c2cc(-c3ccccc3)ccc2C=Cc2ccc(-c3ccccc3)cc21` the absorption maximum (in ClCCl) was 379 nm.
`COc1ccc(-c2nc(-c3ccccc3)c(N(c3ccccc3)c3ccccc3)s2)cc1` gave an absorption maximum (in ClC(Cl)Cl) of 357 nm.
Work on `Cc1ccc(C#Cc2ccc3nc4ccc(C#Cc5ccc(C)cc5)cn4c(=O)c3c2)cc1` yielded an absorption maximum (in ClCCl) of 385 nm.
`CC(C)(C)c1ccc2c(c1)c1cc(C(C)(C)C)ccc1n2-c1ccccc1-c1nc(-c2ccccc2P(=O)(c2ccccc2)c2ccccc2)nc(-c2ccccc2P(=O)(c2ccccc2)c2ccccc2)n1` gave an absorption maximum (in C1CCOC1) of 343.56 nm, an absorption maximum (in CC#N) of 347.54 nm and an absorption maximum (in CC(C)=O) of 343.88 nm. It also gave an absorption maximum (in CN(C)C=O) of 345.95 nm, an absorption maximum (in Cc1ccccc1) of 320.35 nm and an absorption maximum (in ClC(Cl)Cl) of 342.93 nm. It also gave an absorption maximum (in ClCCl) of 341.49 nm.
Work on `CCCCCCCCCCCCN1C(=O)c2ccc3c4ccc5c6c(ccc(c7ccc(c2c37)C1=O)c64)C(=O)N(CCCCCCCCCCCC)C5=O` yielded an absorption maximum (in CN(C)C=O) of 523 nm.
`CCCCCCCCCCCCN1C(=O)c2c(c3ccc4cc(-c5ccc(C(F)(F)F)cc5)c(OC)cc4c3c3c2ccc2cc(-c4ccc(C(F)(F)F)cc4)c(OC)cc23)C1=O` showed an absorption maximum (in ClCCl) of 427 nm.
Work on `COc1ccc2n1[B-](F)(F)[N+]1=C(c3ccccc3)C=CC1=C2c1ccc(C)cc1` yielded an absorption maximum (in C1CCCCC1) of 532 nm, an absorption maximum (in C1CCOC1) of 528 nm and an absorption maximum (in C1COCCO1) of 529 nm. The absorption maximum (in CCOC(C)=O) was 526 nm, the absorption maximum (in CO) was 523 nm and the absorption maximum (in Cc1ccccc1) was 534 nm. For the same molecule, the absorption maximum (in ClC(Cl)Cl) was 530 nm.
For `C(=C\c1ccc(-c2ccc(/C=C/c3ccc(-n4c5ccccc5c5ccccc54)cc3)s2)s1)/c1ccc(-n2c3ccccc3c3ccccc32)cc1`, the absorption maximum (in Cc1ccccc1) was 440.22 nm.
Molecule `CCCCn1c(-c2ccc(-c3nnc(-c4ccc5ccccc5c4)o3)cc2)nc(-c2ccccc2)c1-c1ccccc1` has an absorption maximum (in ClCCl) of 340 nm.
For `CC1=CC(C)=[N+]2C1=C(c1ccc3cccnc3n1)c1c(C)cc(C)n1[B-]2(F)F`, the absorption maximum (in CC#N) was 501 nm, the absorption maximum (in CCCCCC) was 506 nm and the absorption maximum (in CO) was 503 nm. The absorption maximum (in ClC(Cl)Cl) was 509 nm and the absorption maximum (in ClCCl) was 506 nm.
Work on `COc1ccc(C2=CC(c3ccc(OC)cc3)=[O+][B-](C(C)=O)(C(C)=O)O2)cc1` yielded an absorption maximum (in CC#N) of 410 nm and an absorption maximum (in ClC(Cl)(Cl)Cl) of 405 nm.
For `COc1cc2c3sc4ccccc4c3c3cncnc3c2c(OC)c1OC`, the absorption maximum (in ClCCl) was 376 nm.
For `c1ccc(-n2c3ccccc3c3cc(-c4cccc(-n5c6ccccc6c6c7sc8ccccc8c7ccc65)c4)ccc32)cc1`, the absorption maximum (in ClCCl) was 355 nm.
In the case of `Cc1ccc(N(c2ccc(C)cc2)c2ccc(-c3ccc(-c4ccc(N(c5ccc(C)cc5)c5ccc(C)cc5)cc4)c4nsnc34)cc2)cc1`, the absorption maximum (in Cc1ccccc1) is reported as 474 nm and the absorption maximum (in ClCCl) is reported as 485 nm.
In the case of `c1cc2ccc3cc4[nH]ccc4c4ccc(c1)c2c34`, the absorption maximum (in CCOC(C)=O) is reported as 384 nm.
For `CN(C)c1ccc(-c2ccc(-c3cc(N4CCCCC4)c(C#N)c4c3-c3ccccc3CC4)cc2)cc1`, the absorption maximum (in C1CCCCC1) was 353 nm, the absorption maximum (in C1CCOC1) was 342 nm and the absorption maximum (in CN(C)C=O) was 350 nm. The absorption maximum (in CS(C)=O) was 342 nm, the absorption maximum (in Cc1ccccc1) was 360 nm and the absorption maximum (in ClC(Cl)Cl) was 348 nm.
In the case of `OCc1cc2c(cc3ccc4cccc5ccc2c3c45)[nH]1`, the absorption maximum (in CCOC(C)=O) is reported as 388 nm.
In the case of `N#Cc1c(-n2c3ccc(I)cc3c3cc(I)ccc32)c(-n2c3ccc(I)cc3c3cc(I)ccc32)c(C#N)c(-n2c3ccc(I)cc3c3cc(I)ccc32)c1-n1c2ccc(I)cc2c2cc(I)ccc21`, the absorption maximum (in Cc1ccccc1) is reported as 361 nm.
With `COc1ccc(C#Cc2ccc3ccc(=O)oc3c2)cc1` the absorption maximum (in CC#N) was 308 nm.
With `CC1=NN(c2cccc3ccccc23)[B-](F)(F)[n+]2ccccc21` the absorption maximum (in ClCCl) was 432 nm.
`COc1ccc2cc(-c3cc(-c4ccccc4)c4n3[B-](F)(F)[N+]3=C5C=NC=CN5[B-](F)(F)[N+]3=C4)ccc2c1` showed an absorption maximum (in ClCCl) of 536 nm.
